Laboratory results as given in ChEMBL document CHEMBL3817842, “Structure-based optimization and derivatization of 2-substituted quinolone-based non-nucleoside HCV NS5B inhibitors with submicromolar cellular replicon potency” (Bioorg Med Chem Lett, 2016).
Active and inactive are the calls of the source. No cut-off for these calls is given here.

Tests used:
Hepatitis C virus [1] = test: Antiviral activity against HCV genotype 2a JFH1 infected in human Huh7.5.1 cells at 5 uM incubated for 72 hrs by GFP based J399EAM HCV reporter assay; type: functional, Hepacivirus hominis; conditions: for inhibition at 5 µM: subtype 2a JFH1, Huh-7, 72 h; for inhibition: Hepacivirus hominis, subtype 2a JFH1, Huh-7
[2] = Cytotoxicity against human Huh7.5.1 cells infected with human HCV genotype 2a JFH1 assessed as cell viability at 5 uM incubated for 72 hrs by MTT assay; type: cell-based, Huh-7; conditions: Huh7.5.1 cells infected with HCV genotype 2a JFH1, read-out: Activity
Hepatitis C virus [3] = test: Antiviral activity against HCV genotype 2a JFH1 infected in human Huh7.5.1 cells incubated for 72 hrs by GFP based J399EAM HCV reporter assay; type: functional, organism-based, Hepacivirus hominis; conditions: subtype 2a JFH1, Huh-7, 72 h
[4] = Cytotoxicity against human Huh7.5.1 cells infected with human HCV genotype 2a JFH1 incubated for 72 hrs by MTT assay; type: cell-based, Huh-7; conditions: Huh7.5.1 cells infected with HCV genotype 2a JFH1
[5] = Selectivity index, ratio of CC50 for human Huh7.5.1 cells infected with human HCV genotype 2a JFH1 to EC50 for HCV genotype 2a JFH1 infected in human Huh7.5.1 cells; parameters: species or system Huh-7

Structure (SMILES)	inhibition at 5 µM (Hepatitis C virus [1])	viability at 72 h, 5 µM [2]	inhibition (Hepatitis C virus [1])	EC50 (Hepatitis C virus [3])	CC50 at 72 h [4]	Ratio CC50/EC50 [5]
Cc1ccc(C(=O)Nc2ccc(-n3ccc(=O)c4c(=O)n(Cc5ccc(Cl)cc5)ccc43)cc2)o1	42.6%	88%	–	–	–	–
Nc1ccc(-n2ccc(=O)c3c(=O)n(CC4CC=CC4)ccc32)cc1C(F)(F)F	–	100%	inactive	–	–	–
CN1CCN(c2cc3c(cc2F)c(=O)c(C(=O)OCc2ccc(Cl)cc2)cn3Cc2ccc(Cl)cc2)CC1	–	–	–	4.3 µM	> 40 µM	>9.3
Nc1ccc(-n2ccc(=O)c3c(=O)n(Cc4ccc(Cl)cc4)ccc32)c(C(F)(F)F)c1	43.8%	84.8%	–	–	–	–
Cc1cc(NC(=O)c2ccccc2F)ccc1-n1ccc(=O)c2c(=O)n(Cc3ccc(Cl)cc3)ccc21	55.2%	72.6%	–	–	–	–
COc1cc2c(cc1F)c(=O)c(C(=O)OCc1ccc(Cl)cc1)c(C)n2Cc1ccc(Cl)cc1	–	–	–	2.4 µM	> 40 µM	>16.7
O=C(Nc1ccc(F)cc1)Nc1ccc(-n2ccc(=O)c3c(=O)n(Cc4ccc(Cl)cc4)ccc32)cc1	18.8%	98.4%	–	–	–	–
O=C(Nc1ccc(-n2ccc(=O)c3c(=O)n(Cc4ccc(Cl)cc4)ccc32)cc1)c1ccccn1	41.7%	88.7%	–	–	–	–
O=C(Nc1ccc(-n2ccc(=O)c3c(=O)n(Cc4ccc(Cl)cc4)ccc32)cc1)c1cc(F)ccc1F	95.7%	46.1%	–	4.6 µM	6.4 µM	1.4
COCc1c(C(=O)OCc2ccc(Cl)cc2)c(=O)c2cc(F)c(OC)cc2n1Cc1ccc(Cl)cc1	–	–	–	11.1 µM	> 40 µM	>3.6
COCc1c(C(=O)OCc2ccc(Cl)cc2)c(=O)c2cc(F)c(N3CCN(Cc4ccccc4)CC3)cc2n1Cc1ccc(Cl)cc1	–	–	–	4.9 µM	> 40 µM	>8.2
Cc1c(C(=O)OCc2ccc(Cl)cc2)c(=O)c2cc(F)c(N3CCN(C)CC3)cc2n1Cc1ccc(Cl)cc1	–	–	–	7.2 µM	33.1 µM	4.6
Nc1ccc(-n2ccc(=O)c3c(=O)n(Cc4ccccc4)ccc32)cc1C(F)(F)F	–	96.8%	inactive	–	–	–
O=C(Nc1ccc(-n2ccc(=O)c3c(=O)n(Cc4ccc(Cl)cc4)ccc32)c(C(F)(F)F)c1)c1cc(F)ccc1F	98.2%	38.4%	–	1.4 µM	1.5 µM	1.1
COCc1c(C(=O)OCc2ccc(Cl)cc2)c(=O)c2cc(F)c(N3CCN(C)CC3)cc2n1Cc1ccc(Cl)cc1	–	–	–	0.4 µM	4.3 µM	10.8
Nc1ccc(-n2ccc(=O)c3c(=O)n(Cc4ccc(Cl)cc4)ccc32)cc1C(F)(F)F	78.9%	74.3%	–	2.5 µM	17.9 µM	7.2
CN1CCN(c2c(F)cc3c(=O)c(C(=O)OCc4ccc(Cl)cc4)c(-c4ccc(F)cc4)n(C4CC4)c3c2F)CC1	–	–	–	2.02 µM	13.2 µM	5.5
Nc1ccc(-n2ccc(=O)c3c(=O)n(Cc4ccc(Cl)cc4)ccc32)cc1	39.8%	94.6%	–	–	–	–
Cc1ccc(Cn2ccc3c(c(=O)ccn3-c3ccc(N)c(C(F)(F)F)c3)c2=O)cc1	38.7%	100%	–	–	–	–
Cc1ccc(Cn2ccc3c(c(=O)ccn3-c3ccc(N)c(C(F)(F)F)c3)c2=O)c(C)c1	51.7%	99.8%	–	–	–	–
O=C(Nc1ccc(-n2ccc(=O)c3c(=O)n(Cc4ccc(Cl)cc4)ccc32)cc1)c1ncccc1Cl	52.3%	68.6%	–	–	–	–
Nc1ccc(-n2ccc(=O)c3c(=O)n(Cc4ccc(Cl)cc4)ccc32)cc1Cl	68%	79.2%	–	6.4 µM	19.4 µM	3
CCc1c(C(=O)OCc2ccc(Cl)cc2)c(=O)c2cc(F)c(OC)cc2n1Cc1ccc(Cl)cc1	–	–	–	3.7 µM	26.8 µM	7.2
O=c1ccn(-c2ccc([N+](=O)[O-])c(C(F)(F)F)c2)c2ccn(Cc3ccc(Cl)cc3)c(=O)c12	65.7%	75.6%	–	4.8 µM	10.6 µM	2.2
O=C(Nc1ccc(F)cc1)Nc1ccc(-n2ccc(=O)c3c(=O)n(Cc4ccc(Cl)cc4)ccc32)c(C(F)(F)F)c1	33.4%	75.4%	–	–	–	–
N#Cc1ccc(-n2ccc(=O)c3c(=O)n(Cc4ccc(Cl)cc4)ccc32)cc1C(F)(F)F	–	86.4%	inactive	–	–	–
Cc1cc(N)ccc1-n1ccc(=O)c2c(=O)n(Cc3ccc(Cl)cc3)ccc21	52%	91.6%	–	–	–	–
O=c1ccn(-c2ccc([N+](=O)[O-])cc2C(F)(F)F)c2ccn(Cc3ccc(Cl)cc3)c(=O)c12	58.6%	88.2%	–	–	–	–
Cc1cc(NC(=O)Nc2ccc(F)cc2)ccc1-n1ccc(=O)c2c(=O)n(Cc3ccc(Cl)cc3)ccc21	53.1%	70.4%	–	–	–	–
Nc1ccc(-n2ccc(=O)c3c(=O)n(CC4CCCCC4)ccc32)cc1C(F)(F)F	7.7%	100%	–	–	–	–
